Consider one substance from patent US20050202032A1, “Use of neglected target tissue antigens in modulation of immune responses” (The Regents of the University of California, priority 1998, published 2005).

The test system of experiment [1] is female NOD mice. Kind of experiment: IDDM incidence in NOD mice treated at six weeks (Example 6). It is filed as in vivo. To be noted: 100 μg ip in IFA at six weeks, boosted once 10 days later; FIGS. 6 and 7. As to the method: IDDM incidence. At specified times, groups of 10 female NOD mice were injected i.p. with 50 μg antigen or control β-galactosidase in 100 μl of 50% IFA. Another control group received 100 μl of 50% IFA alone. Because there may be a requirement for continual antigen presentation, the mice were reinjected every 6 weeks until 40 weeks of age. Urine glucose levels were monitored weekly for diabetes by Tes-tape (Lilly, Indianapolis, Ind.). After we observed abnormal glucose in the urine, blood glucose levels were monitored twice weekly. A recording of two consecutive blood glucose levels of greater than 13 mmol/l was considered as IDDM onset.
Groups of six weeks old female NOD mice were treated with either the control MSA (MSA 560-574) peptide, or a peptide containing a βCAA target determinant (GADp35, GADp34, HSP 277 or insulin B-chain), or a NTTA peptide #2, 4, 6 or 7 (in each case 100 μg ip in IFA)). The mice were boosted once 10 days later. All mouse groups were injected concurrently and housed in the same SPF room. […] An average of 70% of the mice treated with a βCAA target determinant developed IDDM by 40 weeks in age. Two consecutive blood glucose levels of […] was considered disease onset. N=10 for each group.
An average of 40% of the NOD mice treated with different NTTAs developed IDDM by 40 weeks in age. […]

Experiment [2] relates to diabetic NOD mice with transplanted syngeneic islets. Kind of experiment: Transplantation of syngeneic islets into diabetic NOD mice (Example 2). To be noted: antigen i.p. in IFA to recipient diabetic NOD mice prior to transplantation; FIG. 1. In kind it is in vivo. As to the method:
Transplantation of islets. Female NOD mice were monitored for the onset of IDDM, after which the mice were maintained on 1.0 to 1.5 units insulin (Humulin U, Lilly) per day. At the time of IDDM onset, mice were injected with either 100 μg of GAD65, hsp277, insulin B-chain or control β-galactosidase i.p. in 50% IFA. Ten days later, the mice were reinjected. Ten days after the second treatment, 3000 freshly isolated islets from newborn NOD mice were transplanted into the space beneath the kidney capsule, and Humulin administration was discontinued. The mice were reinjected every two weeks. Recurrence of diabetes is defined as two consecutive blood glucose levels of greater than 13 mmol/l.
Based on the ability of autoantigen treatment to inhibit disease in pre-diabetic NOD mice with (1) we tested whether this treatment could also protect transplanted syngeneic β cells from the established autoimmune responses in diabetic NOD mice. Islets were transplanted into diabetic NOD mice that had been treated with β-galactosidase. […] The results are shown in FIG. 1, wherein data are presented as time post-transplantation at which hyperglycemia recurred. These findings correlate with the extent to which each autoantigen was able to promote Th2 immunity in newly hyperglycemic animals (see Example 3, below).

In experiment [3] the test system is splenic T cells of treated NOD mice. Kind of experiment: ELISPOT of Th1/Th2 responses after neonatal autoantigen treatment (Example 8). In kind it is cell-based. To be noted: treated neonatally 100 μg i.p. in IFA, tested at 4 weeks in age; FIG. 10. As to the method:
(§1) ELISPOT analysis. At a specified time, mice received a single i.p. injection of 100 μg β-galactosidase or GAD65 or other specified antigen in 50% IFA. Fourteen days later, splenic T-cells were isolated and the frequency of β-galactosidase and GAD65-specific T-cells secreting IL-4, IL-5 and IFN-γ was determined by using the ELISPOT technique as described (Forsthuber, T., et al., Science, 271:1728, 1996), with the exception that the treating antigen and β-galactosidase (100 μg/ml) were used as antigens, and 11B11 together with biotinylated BVD6-24G2 (PharMingen, San Diego, Calif.) was used for capture and detection of IL-4. The resulting spots were counted manually.
The data are represented as the mean number of spot forming colonies per million splenic T cells above background. The variation within, each group was <15%. Experimental and control mice were tested simultaneously (in triplicate) in two separate experiments (n=5/group).

In experiment [4] the test system is antigen-specific T cells within islet infiltrates. Kind of experiment: ELISPOT of single antigen-specific T cells from pancreatic islet infiltrates (Example 11). In kind it is cell-based, NOD mice. As to the method: as §1
Monocytes were isolated from islets of 10-week old female NOD mice. 1000, 100 or 10 monocytes were mixed with 1 million irradiated splenic T cells and tested for IFNγ and IL-5 responses to B cell autoantigens, as well as control antigens, by ELISPOT.

Experiment [5] relates to NOD mice. To be noted: intraperitoneally in incomplete Freund's adjuvant early in the NOD mouse disease process (ref 1); cited from earlier work.

Take Insulin B-chain [reference compound]: the “protection from disease / disease incidence” value in experiment [1] is reported as “non-significant trend toward protection”. Moreover, the “syngeneic islet graft survival (recurrence of hyperglycemia)” value in experiment [2] is given as “lacked any protective effect”. For the same substance, in experiment [3], the “Th2 and Th1 responses to the injected autoantigen” value was “both Th2 and Th1 responses”. The “IFNγ responses, number of T cells” value in experiment [4] (100 islet monocytes mixed with 1 million irradiated splenic T cells) is recorded as 6; in experiment [4] (1,000 islet monocytes mixed with 1 million irradiated splenic T cells, 10-week old female NOD mice), 50. For the same substance, the “protection from IDDM” value in experiment [5] was “highly protective”.
